Results from US20220274947A1, “NOVEL HETEROARYL-TRIAZOLE COMPOUNDS AS PESTICIDES” (Bayer Aktiengesellschaft, priority 2019, published 2022).

Key:
Type in all cases: in vivo
Rhipicephalus microplus [1] = assay: Rhipicephalus (Boophilus) microplus in-vitro contact test, larval cattle tick, strain Parkhurst (BOOPMI Cont); conditions: application rate 5 μg/cm^2 (=500 g/ha), tick larvae, after 48 hours, read-out: activity (efficacy: 100% means all larvae are dead or moribund)
How it was run: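 Acetone solutions dried onto glass tube walls (900 ppm giving 5 μg/cm^2); 20-50 pyrethroid-resistant Parkhurst larvae added per tube and held 48 h at 27° C., 85% relative humidity. Efficacy scored by negative geotaxis as % dead or moribund larvae.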

Rhipicephalus microplus [2] = assay: Rhipicephalus (Boophilus) microplus injection test (BOOPMI Inj); conditions: 168 h, injection into adult engorged female ticks, egg deposition after 7 days, read-out: activity (efficacy: 100% means all eggs are infertile); for pest or weed control at 0.004 mg: application rate 4 μg/tick; for pest or weed control at 0.02 mg: application rate 20 μg/tick
How it was run: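 Five engorged adult female R. microplus ticks injected into the abdomen with 1 μL of compound diluted in DMSO, then kept in a climate chamber. Fertile egg deposition checked after 7 days; eggs without visible fertility held until hatching at about 42 days. Efficacy: 100% = all eggs infertile, 0% = all fertile.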

Diabrotica balteata = Diabrotica balteata spray test; conditions: 168 h, wheat seeds, larvae, after 7 days, read-out: activity (efficacy: 100% means all seedlings have grown up like in the untreated, uninfected control); for pest or weed control at 32 µg/disc, 100 g/ha: application rate 100 g/ha (=32 μg/well); for pest or weed control at 160 µg/disc, 500 g/ha: application rate 500 g/ha (=160 μg/well)
How it was run: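 Wheat seedlings, germinated 1 day on agar, were sprayed with compound in acetone/DMF diluted in water containing emulsifier, then infested with 10-20 Diabrotica balteata larvae. After 7 days efficacy in % was scored: 100% means seedlings grew like the untreated, uninfected control; 0% means none grew.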

Myzus persicae [3] = assay: Myzus persicae oral test; conditions: 120 h, read-out: activity (mortality)
How it was run: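 Percent mortality was recorded at day 5, where 0% means no aphids killed. Compound prepared from an acetone concentrate diluted in water and combined with IPL41 medium containing sugar was offered to mixed-stage green peach aphids, which sucked it through a parafilm seal.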

Ctenocephalides felis [4] = assay: Ctenocephalides felis oral test (CTECFE Oral); conditions: 48 h, read-out: activity (mortality)
How it was run: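 About 20 unfed adult cat fleas fed through parafilm on cattle blood containing compound (DMSO concentrate diluted in blood to the desired concentration). Blood held at 37 °C, fleas at room temperature. Mortality (%) scored after 2 days.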

Nezara viridula = Nezara viridula spray test; conditions: in Hordeum vulgare, 96 h, barley plants, larvae, after 4 days; for mortality at 500 g/ha: application rate 500 g/ha; for mortality at 100 g/ha: application rate 100 g/ha
Experimental: Nezara viridula—Spray Test Solvent: 78.0 parts by weight of acetone • • 1.5 parts by weight of dimethylformamide Emulsifier: alkylarylpolyglycol ether
(§1) To produce a suitable preparation of active compound, 1 part by weight of active compound is mixed with the stated amount of solvent, and the concentrate is diluted with water, containing an emulsifier concentration of 1000 ppm, to the desired concentration. Further test concentrations are prepared by dilution with emulsifier containing water.
Barley plants (Hordeum vulgare) infested with larvae of the southern green stink bug (Nezara viridula) are sprayed with a test solution containing the desired concentration of the active ingredient.
After 4 days mortality in % is determined. 100% means all the stink bugs have been killed; 0% means none of the stink bugs have been killed.

[5] = tested on: Musca domestica strain WHO—N; assay: Musca domestica test (MUSCDO surface treatment & contact assay); conditions: exposure 30 minutes, 24 hours after contact, read-out: efficacy (mortality); for mortality at 20 mg/m2: surface concentration 20 mg/m^2, glazed tile; for mortality at 4 mg/m2: surface concentration 4 mg/m^2, glazed tile
How it was run: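 Compound dissolved in acetone (2 mg/ml) with 2000 ppm rapeseed oil methyl ester and pipetted onto glazed tile; after acetone evaporation, adult flies exposed to dried surface for 30 minutes. Mortality (%) scored 24 hours after contact.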

Spodoptera frugiperda = Spodoptera frugiperda spray test; conditions: in Zea mays, 168 h, read-out: activity (mortality)
How it was run: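 Maize leaf sections were sprayed with compound formulated in acetone/DMF and diluted in water containing 1000 ppm emulsifier. Dried leaves were infested with fall armyworm larvae, and percent mortality was scored after 7 days.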

Rhipicephalus sanguineus = Rhipicephalus sanguineus in-vitro contact test, adult brown dog ticks (RHIPSA Cont); conditions: 48 h, after 48 hours, read-out: activity (efficacy: 100% means all ticks are dead or moribund); for pest or weed control at 1 µg/cm2, 100 g/ha: application rate 1 μg/cm^2 (=100 g/ha); for pest or weed control at 5 µg/cm2, 500 g/ha: application rate 5 μg/cm^2 (=500 g/ha)
How it was run: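 Compound in acetone was coated onto the inner walls of glass tubes and dried by rotation before adult brown dog ticks were exposed. Efficacy was scored at 48 h. Ticks unable to climb away from a 45–50 °C heating plate within 5 min counted as dead or moribund.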

Myzus persicae [6] = assay: Myzus persicae spray test; conditions: in Brassica rapa, foliar, 120 h, read-out: activity (mortality), application rate 100 g/ha, spray, Chinese cabbage leaf disks, after 5 days
Experimental: as §1, with “Myzus persicae—Spray Test Solvent: 78.0 parts by weight acetone • 1.5 parts by weight dimethylformamide Emulsifier: alkylarylpolyglycol ether To” for “To”, “solvents” for “solvent,”, “and” for “and the concentrate”
Chinese cabbage (Brassica pekinensis) leaf disks infected with all instars of the green peach aphid (Myzus persicae), are sprayed with a preparation of the active ingredient of the desired concentration.
After 5 days mortality in % is determined. 100% means all aphids have been killed and 0% means none of the aphids have been killed.

[7] = tested on: Aedes aegypti strain MONHEIM; assay: Aedes aegypti test (AEDSAE surface treatment & contact assay); conditions: surface concentration 20 mg/m^2, glazed tile, exposure 30 minutes, 24 hours after contact, read-out: efficacy (mortality)
How it was run: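 Compound dissolved in acetone (2 mg/ml) with 2000 ppm rapeseed oil methyl ester, pipetted onto glazed tile and dried. Adult mosquitoes exposed on the surface for 30 min; percent mortality scored 24 h after contact.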

Ctenocephalides felis [8] = assay: Ctenocephalides felis in-vitro contact test, adult cat flea (CTECFE Cont); conditions: application rate 5 μg/cm^2 (=500 g/ha), adult cat fleas, after 48 hours, read-out: activity (efficacy: 100% means all fleas are dead or moribund)
Experimental: Ctenocephalides felis—In-Vitro Contact Tests Adult Cat Flea (CTECFE Cont)
9 mg compound is solved in 1 mL acetone and diluted with acetone to the desired concentration. 250 μL of the test solution is filled in 25 mL glass test tubes and homogeneously distributed on the inner walls by rotation and tilting on a shaking device (2 h at 30 rpm). With a compound concentration of 900 ppm, an inner surface of 44.7 cm^2 and a homogeneous distribution, a dose of 5 μg/cm^2 is achieved.
After the solvent has evaporated, each test tube is filled with 5-10 adult cat fleas (Ctenocephalides felis), closed with a perforated lid and incubated in a lying position at room temperature and relative humidity. After 48 hours efficacy is determined. The fleas are patted on the ground of the tubes and are incubated on a heating plate at 45-50° C. for at most 5 minutes. Immotile or uncoordinated moving fleas, which are not able to escape the heat by climbing upwards, are marked as dead or moribund.
An efficacy of 100% means all fleas are dead or moribund; 0% means no fleas are dead or moribund.

| Compound | pest or weed control at 5 µg/cm2 (Rhipicephalus microplus [1]) | pest or weed control at 0.004 mg (Rhipicephalus microplus [2]) | pest or weed control at 0.02 mg (Rhipicephalus microplus [2]) | pest or weed control at 32 µg/disc, 100 g/ha (Diabrotica balteata) | pest or weed control at 160 µg/disc, 500 g/ha (Diabrotica balteata) | mortality at 4 ppm (Myzus persicae [3]) | mortality at 100 ppm (Ctenocephalides felis [4]) | mortality at 500 g/ha (Nezara viridula) | mortality at 20 mg/m2 [5] | mortality at 100 g/ha (Spodoptera frugiperda) | mortality at 500 g/ha (Spodoptera frugiperda) | pest or weed control at 1 µg/cm2, 100 g/ha (Rhipicephalus sanguineus) | pest or weed control at 5 µg/cm2, 500 g/ha (Rhipicephalus sanguineus) | mortality at 100 g/ha (Nezara viridula) | mortality at 100 g/ha (Myzus persicae [6]) | mortality at 20 mg/m2 [7] | mortality at 4 mg/m2 [5] | pest or weed control at 5 µg/cm2 (Ctenocephalides felis [8]) |
| --- | --- | --- | --- | --- | --- | --- | --- | --- | --- | --- | --- | --- | --- | --- | --- | --- | --- | --- |
| COc1nc([C@H](C)NC(=O)c2cc(C(F)(F)F)cc(C(F)(F)F)c2)n(-c2ccc(C#N)cn2)n1 [I-11] | 100% | 100% | 100% | 100% | 100% | 100% | 100% | 100% | 80 to 100% | 100% | 100% |  |  |  |  |  |  |  |
| CC(C)c1nc([C@H](C)NC(=O)c2cc(Cl)nc(C(F)(F)F)c2)n(-c2ccc(C#N)cn2)n1 [I-28] | 100% | 100% | 100% | 100% |  | 90% | 100% |  | 80 to 100% | 100% |  | 100% | 100% | 90% |  |  |  |  |
| C[C@H](NC(=O)c1cc(C(F)(F)F)cc(C(F)(F)F)c1)c1nc(C(C)(C)C)nn1-c1ccc(C#N)cn1 [I-37] | 100% | 100% | 100% | 100% |  |  |  |  | 80 to 100% | 100% |  | 100% | 100% | 100% | 90% | 80 to 100% | 80 to 100% |  |
| COc1nc([C@H](C)NC(=O)c2cc(OC(F)F)cc(C(F)F)c2)n(-c2ccc(C#N)cn2)n1 [I-65] | 100% |  |  | 100% |  | 100% |  | 100% |  | 100% |  |  | 80% |  | 90% |  |  |  |
| C[C@H](NC(=O)c1cc(Cl)cc(OC(F)(F)F)c1)c1ncnn1-c1ncc(Br)s1 [II-15, N-{(1S)-1-[1-(5-bromo-1,3-thiazol-2-yl)-1H-1,2,4-triazol-5-yl]ethyl}-3-chloro-5-(trifluoromethoxy)benzamide] | 100% | 100% | 100% | 100% | 100% |  | 100% | 90% | 80 to 100% |  | 100% |  |  |  |  |  |  | 80% |
| C[C@H](NC(=O)c1cc(Cl)cc(OC(F)(F)F)c1)c1ncnn1-c1ncc(I)s1 [II-21] | 100% | 100% | 100% | 100% | 100% |  | 100% | 90% | 80 to 100% |  | 100% |  |  |  |  |  | 80 to 100% | 80% |
| C[C@H](NC(=O)c1cc(Cl)cc(C(F)(F)F)c1)c1ncnn1-c1ccc(C(=O)N(CC(F)(F)F)C2CC2)cn1 [II-70] | 100% | 100% | 100% | 100% | 100% |  |  | 90% |  | 100% | 100% | 100% | 100% |  |  |  |  | 100% |
| C[C@H](NC(=O)c1cc(Cl)cc(C(F)(F)F)c1)c1ncnn1-c1ccc(C(=O)N(C)CC#N)cn1 [II-72] | 100% | 100% | 100% | 100% | 100% | 100% |  | 100% |  | 100% | 100% | 100% | 100% |  |  |  |  | 100% |
| COCCN(C)C(=O)c1ccc(-n2nc(C)nc2[C@H](C)NC(=O)c2cc(C(F)(F)F)cc(C(F)(F)F)c2)nc1 [II-98] | 100% | 100% |  |  |  | 100% | 100% |  |  | 83% |  | 100% | 100% |  | 90% |  |  |  |
| Cc1nc([C@H](C)NC(=O)c2cc(Br)cc(OC(F)(F)F)c2)n(-c2cc(C#N)ccn2)n1 [II-106] | 100% | 100% |  | 100% |  | 100% | 100% |  |  | 100% |  | 100% | 100% |  | 90% |  |  | 90% |
